One test has as its system pS6 RP (S235/236). Kind of test: Western blot of pS6 RP (distal readout of PI3Kα activity) in MCF7 parental and CR2.5 cells. It is filed as cell-based, human. As to conditions: overnight incubation (FIG. 3). The procedure: (§1) Control MCF7 (parental) and MAP3K1-deficient (CR2.5) cell lines cultured in full growth media and treated with either Compound A, Compound B and GDC-0068 as described previously. Following overnight incubation, cell lysates are prepared and analysed by Western blotting using antibodies specific for phosphorylated proteins in the PI3K pathway (FIG. 3).

A further test concerns pPRAS40. Description: Western blot of pPRAS40 (readout of AKT activity) in MCF7 parental and CR2.5 cells. It is filed as cell-based, human. The following applies: MAP3K1-deficient MCF7 CR2.5 cell line, overnight incubation (FIG. 3). How it is done: as §1
For another test, the system named is pAKT (T308). Kind of test: Immunoblot of phosphorylated AKT (T308) in PIK3CA mutant breast cancer cell lines. It is filed as cell-based, human. The procedure:
Protocol for Measuring Phosphorylated AKT (T308) in MCF7, T47D Cells.
Low-passage MCF7 and T47D cells were obtained from AZ Cell Bank Collection and cultured as described previously (Avivar-Valderas et al., MCB, 31(17):3616-29, 2011). Wild-type and MCF10A-PI3Kα^H1047R were provided by Horizon Discovery.
After culture, cells were lysed, and protein was analyzed by immunoblotting (IB) (Avivar-Valderas et al., MCB, 31(17):3616-29, 2011). Membranes were blotted using antibodies against MAP3K1 (Santa Cruz) phospho AKT (Thr308) (Cell Signaling Technology) and Vinculin (Sigma). Bound antibodies were detected with horseradish peroxidase (HRP)-conjugated secondary antibodies and chemiluminescence assays (Avivar-Valderas et al., MCB, 31(17):3616-29, 2011).
The effect of MAP3K1 loss of expression on the pharmacological activity of Compound A using the cell-lines generated via siRNA transfection was examined by monitoring the level of inhibition of signalling readouts downstream of PI3Kalpha. A major readout of the pathway is the phosphorylation of AKT at Threonine 308. This phosphorylation is carried out by PDK1, itself activated by PI3K-generated PIP3 (phosphatidyl inositol 3,4,5-trisphosphate). Further pathway readouts are phosphorylation of PRAS40 (Proline-Rich AKT1 Substrate) at Thr246. […]

Test [1] relates to MAP3K1-deficient MCF10A-H1047R acini. Description: 3D-Matrigel culture, cleaved caspase 3 (apoptosis), MAP3K1-deficient MCF10A-H1047R acini. It is filed as cell-based. As to conditions: 15 days (FIG. 7A right). The procedure:
(§2) For 3D cultures, cells were plated in commercially available growth factor-reduced Matrigel (Mgel) (BD Biosciences, San Diego, Calif.) and grown (Avivar-Valderas et al., MCB, 31(17):3616-29, 2011). Prior to fixation for IF analysis, acini were treated with 500 nM Compound B every 3 days until the endpoint (day 15). 3D-Matrigel MCF10A acinar structures were fixed at day 15 and processed for size measurement and IF microscopy analysis (Avivar-Valderas et al., MCB, 31(17):3616-29, 2011)
(§3) This might be explained by an increase of cell proliferation or/and reduction of cell death (anoikis in ECM-deprived cells). To test the latter, staining with caspase 3 (anoikis readout) and confocal equatorial sections to analyse lumen formation (main compartment in which anoikis takes place) were carried out.

Test [2] concerns MCF10A-H1047R control acini. Description: 3D-Matrigel culture, cleaved caspase 3 (apoptosis), MCF10A-H1047R control acini. It counts as cell-based. The following applies: 15 days (FIG. 7A right). The procedure:
as §2, §3

Another test relates to pS6 RP. Description: pS6 RP staining of 3D-Matrigel acini, MCF7 parental and MCF7 CR2.5. As to conditions: 2 μM per FIG. 7B legend. It counts as cell-based, human. How it is done:
For 3D cultures, cells were plated in commercially available growth factor-reduced Matrigel (Mgel) (BD Biosciences, San Diego, Calif.) and grown (Avivar-Valderas et al., MCB, 31(17):3616-29, 2011). […] 3D-Matrigel MCF10A acinar structures were fixed at day 15 and processed for size measurement and IF microscopy analysis (Avivar-Valderas et al., MCB, 31(17):3616-29, 2011)
ECM-attached cells (located in the outer rim) were positive for pS6 RP in parental acini. As predicted, the number of pS6 RP positive cells was greater in MCF7-CR2.5 (FIG. 7B, grey bars).

For test [3], the system named is MCF10A-H1047R parental cells. Kind of test: IncuCyte proliferation assay, MCF10A-H1047R parental cells. It is filed as cell-based. As to conditions: 500 nM; MCF10A-H1047R parental cells (FIG. 4, FIG. 6). How it is done:
(§4) MCF7 and MCF10A cells were plated in 96 well plates at a density of 2000 cells per well in RPMI media containing 10% FBS or DMEM/F12 media containing 5% of HS (horse serum) respectively. After incubation at 37° C. for 16 hours, concentrations of Compound A, Compound B (30 μM to 117 nM) or AZD2014 (15 μM to 66 nM) were added to the assay plates. Plates were then placed in the IncuCyte and scheduled to be scanned every 6 h for 3 days. Relative percentage of confluence data was normalized to control DMSO treated cells and fitted to a nonlinear regression curve using PRISM (Graphpad).

A further test concerns MCF7 CR2.5 acini. Kind of test: 3D-Matrigel culture, acinus volume, MAP3K1-deficient MCF7 CR2.5. As to conditions: 500 nM every 3 days until day 15; MAP3K1-deficient acini (FIG. 7A left). It counts as cell-based, human.
The next test has as its system MCF7 parental cells. Kind of test: IncuCyte proliferation assay, MCF7 parental cells. It is filed as cell-based, human. The following applies: 500 nM; parental MCF7 cells (FIG. 4C-D, FIG. 6B). The procedure:
as §4

Another test relates to MCF7-CR1.4 cells. Description: IncuCyte proliferation assay, MAP3K1 mutant clone MCF7-CR1.4. It counts as cell-based, human.
The next test deals with MCF7 parental acini. Description: 3D-Matrigel culture, acinus volume, MCF7 parental. It counts as cell-based, human. As to conditions: 500 nM every 3 days until day 15; control cultures (MCF7 parental) (FIG. 7A left).
For test [4], the system named is MCF10A-H1047R CR2.3 cells. Kind of test: IncuCyte proliferation assay, MAP3K1 mutant clone H1047R-CR2.3. It counts as cell-based. The procedure:
as §4

Setting [5] is: MAP3K1-deficient MCF7 cells (CR2.5).

On to `CCn1nc(C2CCN(C(=O)CCO)CC2)nc1-c1cnc(N)c(-c2nnc(C(C)(C)C)o2)n1` [Compound A, 1-(4-(5-(5-amino-6-(5-tert-butyl-1,3,4-oxadiazol-2-yl)pyrazin-2-yl)-1-ethyl-1H-1,2,4-triazol-3-yl)piperidin-1-yl)-3-hydroxypropan-1-one], for which the “inhibition of pS6 RP activity” value in the test with pS6 RP (S235/236) (setting [5]) is given as “resistant to all treatments”; in the test on pS6 RP (S235/236) (parental MCF7 cells), “efficiently inhibit”. Besides, the “inhibition of pPRAS40” value in the test on pPRAS40 is reported as “resistant”. For the same compound, the “phosphorylation of AKT on Thr308” value with pAKT (T308) (250 nM for 24 hours, control cells transfected with control siRNA duplex inactive on MAP3K1 mRNA (MCF7, T47D; FIG. 2A)) was “profound reduction”. Further, in the test on pAKT (T308) (MAP3K1-deficient MCF7 clones CR1.4 and CR2.5 compared to parental MCF7 (FIG. 2B)), the “inhibition of PI3K signalling, effect on pAKT on Thr308 by Western blotting” value is reported as “less pronounced”.

`NC1(C(=O)N[C@@H](CCO)c2ccc(Cl)cc2)CCN(c2ncnc3[nH]ccc23)CC1` [Compound B, 4-amino-N-[(1S)-1-(4-chlorophenyl)-3-hydroxy-propyl]-1-(7H-pyrrolo[2,3-d]pyrimidin-4-yl)piperidine-4-carboxamide]: the “increase in number of positive cleaved caspase 3 events” value in test [1] is recorded as “not significant”. The “number of positive cleaved caspase 3 events” value in test [2] is given as “significant increase”. Further, the “number of positive pS6 RP cells, reduction by treatment” value with pS6 RP (MCF7 CR2.5 acini) is “reverted”. In the test on pS6 RP (parental MCF7 acini), the “number of positive pS6 RP cells” value is recorded as “strongly reduced”. Besides, the effect on proliferation result in test [3] was “able to inhibit the proliferation”; with MCF7-CR1.4 cells (500 nM, MCF7-CR1.4 (FIG. 4C-D, FIG. 6B)) it was “no effect”; in test [4] (500 nM, MAP3K1-mutant line derived from MCF10A-H1047R (FIG. 4, FIG. 6)), “no effect”. The “inhibition of pS6 RP activity” value in the test on pS6 RP (S235/236) (setting [5]) was “resistant to all treatments”; in the test with pS6 RP (S235/236) (parental MCF7 cells), “efficiently inhibit”. Besides, the “acini volume, reduction by treatment” value with MCF7 CR2.5 acini was “partially reverted”. In addition, the “effect on proliferation (growth)” value in the test with MCF7 parental cells is recorded as “able to reduce growth”. For the same compound, the “inhibition of pPRAS40” value in the test on pPRAS40 is recorded as “resistant”. Besides, the “increase of IC50 for proliferation relative to parental cells” value in the test with MCF7-CR1.4 cells (MCF7-CR1.4 relative to parental MCF7 cells (FIG. 5)) was 3 fold; in test [4] (clone H1047R-CR2.3 relative to MCF10A-H1047R parental cells (FIG. 5)) it was 10 fold. The acini volume entry in the test on MCF7 parental acini was “significantly reduced”.

`CC(C)NC[C@@H](C(=O)N1CCN(c2ncnc3c2[C@H](C)C[C@H]3O)CC1)c1ccc(Cl)cc1` [GDC-0068, ipatasertib, reference compound]: the “inhibition of pS6 RP activity” value in the test with pS6 RP (S235/236) (setting [5]) is “resistant to all treatments”; in the test with pS6 RP (S235/236) (parental MCF7 cells), “efficiently inhibit”. Moreover, the “inhibition of pPRAS40” value in the test with pPRAS40 is given as “resistant”.
